Results as given in ChEMBL document CHEMBL1153786, “Cardenolide glycosides of Thevetia peruviana and triterpenoid saponins of Sapindus emarginatus as TRAIL resistance-overcoming compounds” (2009).
The source made the active and inactive calls. The calls are words filed in the database; no cut-off is given here.

How the values were obtained:
Type in all cases: functional
AGS [1] = assay: Cytotoxicity against human TRAIL-resistant AGS cells after 24 hrs by FMCA in presence of TRAIL
AGS [2] = assay: Cytotoxicity against human TRAIL-resistant AGS cells at 27.1 nM after 24 hrs by FMCA in presence of TRAIL
AGS [3] = assay: Cytotoxicity against human TRAIL-resistant AGS cells at 29.2 nM after 24 hrs by FMCA in absence of TRAIL
AGS [4] = assay: Cytotoxicity against human TRAIL-resistant AGS cells at 29.2 nM after 24 hrs by FMCA in presence of TRAIL
AGS [5] = assay: Cytotoxicity against human TRAIL-resistant AGS cells at 125 nM after 24 hrs by FMCA in absence of TRAIL
AGS [6] = assay: Induction of DR5 mRNA expression in human TRAIL-resistant AGS cells at 500 nM by reat-time RT-PCR analysis relative to GADPH
AGS [7] = assay: Induction of DR4 mRNA expression in human TRAIL-resistant AGS cells at 250 nM by reat-time RT-PCR analysis relative to GADPH
AGS [8] = assay: Induction of DR4 mRNA expression in human TRAIL-resistant AGS cells at 500 nM by reat-time RT-PCR analysis relative to GADPH
AGS [9] = assay: Induction of DR5 mRNA expression in human TRAIL-resistant AGS cells at 125 nM by reat-time RT-PCR analysis relative to GADPH
AGS [10] = assay: Induction of DR4 mRNA expression in human TRAIL-resistant AGS cells at 125 nM by reat-time RT-PCR analysis relative to GADPH
AGS [11] = assay: Induction of DR5 mRNA expression in human TRAIL-resistant AGS cells at 250 nM by reat-time RT-PCR analysis relative to GADPH
AGS [12] = assay: Cytotoxicity against human TRAIL-resistant AGS cells at 125 nM after 24 hrs by FMCA in presence of TRAIL

## CC(=O)O[C@H]1[C@H](O[C@@H]2[C@@H](O)[C@H](C)O[C@@H](O[C@H]3[C@H](O[C@H]4CC[C@@]5(C)[C@@H](CC[C@]6(C)[C@@H]5CC=C5[C@@H]7CC(C)(C)CCC7(C(=O)O)CC[C@]56C)[C@]4(C)CO)OC[C@H](O)[C@@H]3O)[C@@H]2O)OC[C@@H](O)[C@@H]1O (stereo partly specified)
AGS [1]
  Activity: Active
AGS [2]
  Activity: 45%

## CC(=O)O[C@@H]1CO[C@@H](O[C@@H]2[C@@H](O)[C@H](C)O[C@@H](O[C@H]3[C@H](O[C@H]4CC[C@@]5(C)[C@@H](CC[C@]6(C)[C@@H]5CC=C5[C@@H]7CC(C)(C)CCC7(C(=O)O)CC[C@]56C)[C@]4(C)CO)OC[C@H](O)[C@@H]3O)[C@@H]2O)[C@H](O)[C@H]1O (stereo partly specified)
AGS [1]
  Activity: Active

## CC(=O)O[C@@H]1[C@@H](O)[C@H](O[C@@H]2[C@@H](O)[C@H](C)O[C@@H](O[C@H]3[C@H](O[C@H]4CC[C@@]5(C)[C@@H](CC[C@]6(C)[C@@H]5CC=C5[C@@H]7CC(C)(C)CCC7(C(=O)O)CC[C@]56C)[C@]4(C)CO)OC[C@H](O)[C@@H]3O)[C@@H]2O)OC[C@H]1OC(C)=O (stereo partly specified)
AGS [1]
  Activity: Active

## CC(=O)O[C@H]1[C@H](O[C@@H]2[C@@H](O)[C@H](C)O[C@@H](O[C@H]3[C@H](O[C@H]4CC[C@@]5(C)[C@@H](CC[C@]6(C)[C@@H]5CC=C5[C@@H]7CC(C)(C)CCC7(C(=O)O)CC[C@]56C)[C@]4(C)CO)OC[C@H](O)[C@@H]3O)[C@@H]2O)OC[C@@H](OC(C)=O)[C@@H]1O (stereo partly specified)
AGS [1]
  Activity: Active

## O=c1cc(-c2ccc(O)c(O)c2)oc2cc(O)cc(O)c12 [LUTEOLIN]
AGS [1]
  Activity: 70%

## CO[C@H]1[C@H](O)[C@H](O[C@H]2CC[C@@]3(C)[C@H](CC[C@@H]4[C@@H]3CC[C@]3(C)[C@@H](C5=CC(=O)OC5)CC[C@]43O)C2)O[C@@H](C)[C@@H]1O [NERIIFOLIN]
AGS [3]
  Activity: 79%
AGS [4]
  Activity: 36%

## CO[C@H]1[C@H](O)[C@H](O[C@H]2CC[C@@]3(C)[C@@H](CC[C@@H]4[C@@H]3CC[C@]3(C)[C@@H](C5=CC(=O)OC5)CC[C@]43O)C2)O[C@@H](C)[C@@H]1O [THEVEFOLIN]
AGS [5]
  Activity: 65%
AGS [6]
  fold change (FC): 1.8
AGS [7]
  fold change (FC): 3.3
AGS [8]
  fold change (FC): 3.6
AGS [9]
  fold change (FC): 1.2
AGS [10]
  fold change (FC): 1.8
AGS [11]
  fold change (FC): 1.6
AGS [12]
  Activity: 46%
